Experimental data: patent publication US12357711B2, “PSMA binding dual mode radiotracer and therapeutic” (Technische Universität München, priority 2019, dated 2025)

Test system: SCID mice
Assay: Preclinical dosimetry from biodistribution in mice, extrapolated to 70-kg Standard Adult (OLINDA/EXM 1.0)
Format: in vivo
Conditions: 1.0 h bladder voiding interval
Method: 3-5 mice were injected per timepoint with a mean 25.6±3.6 MBq of 18F-rhPSMA-7 and 28.5±4.8 MBq of 18F-rhPSMA-7.3, respectively. Mice, severe combined immunodeficiency (SCID) were used for the experiments.
Mice were sacrificed at the following timepoints: • ^18F-rhPSMA-7: 10, 20, 40, 60, 120 and 180 minutes after administration. • ^18F-rhPSMA-7.3: 10, 60, 120, 180 and 300 minutes after administration.
Urine, blood, heart, lung, spleen, pancreas, liver, stomach (emptied), small intestine (emptied), large intestine (emptied), kidneys, bladder, testis, fat, muscle (partial, femoral), femur, tail and brain. Urine was collected with a pipette in the CO2 gas chamber. In case of missing urination in the chamber the bladder was aspirated with an insulin syringe. Blood was withdrawn instantly after sacrifice with an insulin syringe from the heart. All other tissues and organs were dissected and transferred directly in plastic containers.
The counting rates of measurement samples were automatically corrected for decay. The radioactivity distribution ratios (unit: percentage of the injected dose (% ID) in the measurement samples were determined using the equation below. The sum of the counting rates from all measurement samples obtained from one mouse was designated as the counting rate for administrated radioactivity.
The radioactivity distribution ratio per unit weight of the measurement sample (unit: % ID/g) excluding urine and feces samples was determined by using the equation below. The weight of the measurement sample was determined by subtraction of the empty measurement container from the container including the sample.
For consistency of statistical calculations for each radiotracer the same number of time-points for ^18F-rhPSMA-7 and ^18F-rhPSMA-7.3 was used. Therefore, for ^18F-rhPSMA-7 the 10 min and 20 min time points were combined creating a 15 min endpoint.
The time-integral of activity for the accumulation in the significant source organs (AUCs) were generated both with numerical integration and physical decay according to J Juan et al., Journal of Pharmaceutical Sciences, 1993, 82:762-763.
In brief, to calculate a human dosimetry from the biodistribution in the mice, an extrapolation was necessary to account for the differences between the animals and humans. Normal-organ radiation doses were estimated for the 70-kg Standard Adult anatomic model using time-depending organ activity concentrations (in percent of the injected dose per gram, % ID/g) and total-body activities measured in the biodistribution studies in mice.
Tissue activity concentrations in mice were converted to tissue fractional activities in the 70-kg Standard Adult using the relative fractional organ masses in the Standard Adult and the “standard” 25-gramm mouse. Time-dependent total-body activity was fit to an exponential function and the difference between the injected activity and the total-body activity was assumed to be excreted to the urine because activity concentrations in the liver and GI tracer were low at all time points studied.
Organ residence time was calculated by numerical integration using the trapezoidal rule and the rest-of-body ^18F residence times was calculated as the difference between the total-body residence time and the sum of the organ and urine residence times. The bladder contents residence time was estimated using the dynamic voiding model in the OLINDA/EXM 1.0 dosimetry software. Finally, the Standard Adult mean organ dose equivalents (in mSv/MBq) and effective dose (also in mSv/MBq) were then calculated using OLIN DA/EXM 1.0.
Final calculation of radiation absorbed dose and dosimetry from biodistribution in mice: The tissues or organs in which a significant accumulation of radioactivity occurs (i.e., source organ) were kidney, spleen, lung, liver and heart. With respect to activity accumulation and clearance, a rapid clearance from blood and clearance to urine but relatively slow build-up in kidney was found.

CC(C)(C)[Si](F)(c1ccc(C(=O)NC[C@@H](NC(=O)CC[C@@H](C(=O)O)N2CCN(CC(=O)[O-])CCN(CC(=O)[O-])CCN(CC(=O)[O-])CC2)C(=O)N[C@H](CCCCNC(=O)CCC(=O)NCCC[C@@H](NC(=O)CC[C@H](NC(=O)N[C@@H](CCC(=O)O)C(=O)O)C(=O)O)C(=O)O)C(=O)O)cc1)C(C)(C)C.[Ga+3] [rhPSMA7.3, [^19F][^natGa]D-Dap-S-DOTAGA-rhPSMA7]
Adrenals ED Cont.: 5.46E−05 mSv/MBq | Adrenals EDE Cont.: 0.00E000 mSv/MBq | Adrenals dose Alpha: 0.00E000 mSv/MBq | Adrenals dose Beta: 3.12E−03 mSv/MBq | Adrenals dose Photon: 7.79E−03 mSv/MBq | Adrenals dose Total: 1.09E−02 mSv/MBq | Brain ED Cont.: 3.59E−05 mSv/MBq | Brain EDE Cont.: 0.00E000 mSv/MBq | Brain dose Alpha: 0.00E000 mSv/MBq | Brain dose Beta: 3.12E−03 mSv/MBq | Brain dose Photon: 4.06E−03 mSv/MBq | Brain dose Total: 7.18E−03 mSv/MBq | Breasts ED Cont.: 3.32E−04 mSv/MBq | Breasts EDE Cont.: 9.97E−04 mSv/MBq | Breasts dose Alpha: 0.00E000 mSv/MBq | Breasts dose Beta: 3.12E−03 mSv/MBq | Breasts dose Photon: 3.53E−03 mSv/MBq | Breasts dose Total: 6.65E−03 mSv/MBq | Gallbladder Wall ED Cont.: 0.00E000 mSv/MBq | Gallbladder Wall EDE Cont.: 0.00E000 mSv/MBq | Gallbladder Wall dose Alpha: 0.00E000 mSv/MBq | Gallbladder Wall dose Beta: 3.12E−03 mSv/MBq | Gallbladder Wall dose Photon: 7.11E−03 mSv/MBq | Gallbladder Wall dose Total: 1.02E−02 mSv/MBq | Heart Wall ED Cont.: 0.00E000 mSv/MBq | Heart Wall EDE Cont.: 0.00E000 mSv/MBq | Heart Wall dose Alpha: 0.00E000 mSv/MBq | Heart Wall dose Beta: 1.32E−03 mSv/MBq | Heart Wall dose Photon: 5.36E−03 mSv/MBq | Heart Wall dose Total: 6.68E−03 mSv/MBq | Kidneys ED Cont.: 3.58E−04 mSv/MBq | Kidneys EDE Cont.: 4.29E−03 mSv/MBq | Kidneys dose Alpha: 0.00E000 mSv/MBq | Kidneys dose Beta: 5.11E−02 mSv/MBq | Kidneys dose Photon: 2.04E−02 mSv/MBq | Kidneys dose Total: 7.16E−02 mSv/MBq | LLI Wall ED Cont.: 1.39E−03 mSv/MBq | LLI Wall EDE Cont.: 6.94E−04 mSv/MBq | LLI Wall dose Alpha: 0.00E000 mSv/MBq | LLI Wall dose Beta: 3.12E−03 mSv/MBq | LLI Wall dose Photon: 8.45E−03 mSv/MBq | LLI Wall dose Total: 1.16E−02 mSv/MBq | Liver ED Cont.: 2.92E−04 mSv/MBq | Liver EDE Cont.: 0.00E000 mSv/MBq | Liver dose Alpha: 0.00E000 mSv/MBq | Liver dose Beta: 9.70E−04 mSv/MBq | Liver dose Photon: 4.87E−03 mSv/MBq | Liver dose Total: 5.84E−03 mSv/MBq | Lungs ED Cont.: 7.90E−04 mSv/MBq | Lungs EDE Cont.: 7.90E−04 mSv/MBq | Lungs dose Alpha: 0.00E000 mSv/MBq | Lungs dose Beta: 1.95E−03 mSv/MBq | Lungs dose Photon: 4.63E−03 mSv/MBq | Lungs dose Total: 6.58E−03 mSv/MBq | Muscle ED Cont.: 4.30E−05 mSv/MBq | Muscle EDE Cont.: 0.00E000 mSv/MBq | Muscle dose Alpha: 0.00E000 mSv/MBq | Muscle dose Beta: 3.12E−03 mSv/MBq | Muscle dose Photon: 5.47E−03 mSv/MBq | Muscle dose Total: 8.59E−03 mSv/MBq | Osteogenic Cells ED Cont.: 1.28E−04 mSv/MBq | Osteogenic Cells EDE Cont.: 3.84E−04 mSv/MBq | Osteogenic Cells dose Alpha: 0.00E000 mSv/MBq | Osteogenic Cells dose Beta: 6.70E−03 mSv/MBq | Osteogenic Cells dose Photon: 6.11E−03 mSv/MBq | Osteogenic Cells dose Total: 1.28E−02 mSv/MBq | Ovaries ED Cont.: 2.35E−03 mSv/MBq | Ovaries EDE Cont.: 2.93E−03 mSv/MBq | Ovaries dose Alpha: 0.00E000 mSv/MBq | Ovaries dose Beta: 3.12E−03 mSv/MBq | Ovaries dose Photon: 8.61E−03 mSv/MBq | Ovaries dose Total: 1.17E−02 mSv/MBq | Pancreas ED Cont.: 5.62E−05 mSv/MBq | Pancreas EDE Cont.: 0.00E000 mSv/MBq | Pancreas dose Alpha: 0.00E000 mSv/MBq | Pancreas dose Beta: 3.12E−03 mSv/MBq | Pancreas dose Photon: 8.12E−03 mSv/MBq | Pancreas dose Total: 1.12E−02 mSv/MBq | Red Marrow ED Cont.: 9.97E−04 mSv/MBq | Red Marrow EDE Cont.: 9.97E−04 mSv/MBq | Red Marrow dose Alpha: 0.00E000 mSv/MBq | Red Marrow dose Beta: 2.22E−03 mSv/MBq | Red Marrow dose Photon: 6.09E−03 mSv/MBq | Red Marrow dose Total: 8.31E−03 mSv/MBq | Skin ED Cont.: 6.57E−05 mSv/MBq | Skin EDE Cont.: 0.00E000 mSv/MBq | Skin dose Alpha: 0.00E000 mSv/MBq | Skin dose Beta: 3.12E−03 mSv/MBq | Skin dose Photon: 3.45E−03 mSv/MBq | Skin dose Total: 6.57E−03 mSv/MBq | Small Intestine ED Cont.: 5.45E−05 mSv/MBq | Small Intestine EDE Cont.: 0.00E000 mSv/MBq | Small Intestine dose Alpha: 0.00E000 mSv/MBq | Small Intestine dose Beta: 3.12E−03 mSv/MBq | Small Intestine dose Photon: 7.78E−03 mSv/MBq | Small Intestine dose Total: 1.09E−02 mSv/MBq | Spleen ED Cont.: 1.33E−04 mSv/MBq | Spleen EDE Cont.: 1.59E−03 mSv/MBq | Spleen dose Alpha: 0.00E000 mSv/MBq | Spleen dose Beta: 1.52E−02 mSv/MBq | Spleen dose Photon: 1.14E−02 mSv/MBq | Spleen dose Total: 2.66E−02 mSv/MBq | Stomach Wall ED Cont.: 1.19E−03 mSv/MBq | Stomach Wall EDE Cont.: 0.00E000 mSv/MBq | Stomach Wall dose Alpha: 0.00E000 mSv/MBq | Stomach Wall dose Beta: 3.12E−03 mSv/MBq | Stomach Wall dose Photon: 6.80E−03 mSv/MBq | Stomach Wall dose Total: 9.92E−03 mSv/MBq | Testes ED Cont.: 0.00E000 mSv/MBq | Testes EDE Cont.: 0.00E000 mSv/MBq | Testes dose Alpha: 0.00E000 mSv/MBq | Testes dose Beta: 3.12E−03 mSv/MBq | Testes dose Photon: 6.08E−03 mSv/MBq | Testes dose Total: 9.20E−03 mSv/MBq | Thymus ED Cont.: 4.09E−05 mSv/MBq | Thymus EDE Cont.: 0.00E000 mSv/MBq | Thymus dose Alpha: 0.00E000 mSv/MBq | Thymus dose Beta: 3.12E−03 mSv/MBq | Thymus dose Photon: 5.06E−03 mSv/MBq | Thymus dose Total: 8.18E−03 mSv/MBq | Thyroid ED Cont.: 4.13E−04 mSv/MBq | Thyroid EDE Cont.: 2.48E−04 mSv/MBq | Thyroid dose Alpha: 0.00E000 mSv/MBq | Thyroid dose Beta: 3.12E−03 mSv/MBq | Thyroid dose Photon: 5.15E−03 mSv/MBq | Thyroid dose Total: 8.27E−03 mSv/MBq | Total Body ED Cont.: 0.00E000 mSv/MBq | Total Body EDE Cont.: 0.00E000 mSv/MBq | Total Body dose Alpha: 0.00E000 mSv/MBq | Total Body dose Beta: 3.45E−03 mSv/MBq | Total Body dose Photon: 5.42E−03 mSv/MBq | Total Body dose Total: 8.87E−03 mSv/MBq | ULI Wall ED Cont.: 5.23E−05 mSv/MBq | ULI Wall EDE Cont.: 0.00E000 mSv/MBq | ULI Wall dose Alpha: 0.00E000 mSv/MBq | ULI Wall dose Beta: 3.12E−03 mSv/MBq | ULI Wall dose Photon: 7.33E−03 mSv/MBq | ULI Wall dose Total: 1.05E−02 mSv/MBq | Urinary Bladder Wall ED Cont.: 3.92E−03 mSv/MBq | Urinary Bladder Wall EDE Cont.: 4.70E−03 mSv/MBq | Urinary Bladder Wall dose Alpha: 0.00E000 mSv/MBq | Urinary Bladder Wall dose Beta: 5.18E−02 mSv/MBq | Urinary Bladder Wall dose Photon: 2.66E−02 mSv/MBq | Urinary Bladder Wall dose Total: 7.84E−02 mSv/MBq | Uterus ED Cont.: 7.13E−05 mSv/MBq | Uterus EDE Cont.: 8.55E−04 mSv/MBq | Uterus dose Alpha: 0.00E000 mSv/MBq | Uterus dose Beta: 3.12E−03 mSv/MBq | Uterus dose Photon: 1.11E−02 mSv/MBq | Uterus dose Total: 1.43E−02 mSv/MBq
